From PubChem BioAssay (NCI)
Where “and” joins values, the source holds several entries; their conditions need not be identical. Equal values may be shown once.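 Tested at 5 concentrations; 48 h exposure; 96-well plates; endpoints linearly interpolated, else capped at highest concentration. GI50 is the concentration that inhibits growth by half. TGI denotes the concentration required for complete inhibition of growth.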

Assays:
Test in all cases: inhibition of tumour cell growth, NCI panel, 48 h
[1] = tested on: 786-0 renal
[2] = tested on: A498 renal
[3] = tested on: A549 NSCLC
[4] = tested on: ACHN renal
[5] = tested on: CAKI-1 renal
[6] = tested on: CCRF-CEM leukemia
[7] = tested on: COLO 205 colon
[8] = tested on: DLD-1 colon
[9] = tested on: DMS 114 small cell lung
[10] = tested on: DMS 273 small cell lung
[11] = tested on: EKVX NSCLC
[12] = tested on: HCC-2998 colon
[13] = tested on: HCT-116 colon
[14] = tested on: HCT-15 colon
[15] = tested on: HL-60(TB) leukemia
[16] = tested on: HOP-18 NSCLC
[17] = tested on: HOP-62 NSCLC
[18] = tested on: HOP-92 NSCLC
[19] = tested on: HT29 colon
[20] = tested on: IGROV1 ovarian
[21] = tested on: K-562 leukemia
[22] = tested on: KM12 colon
[23] = tested on: KM20L2 colon
[24] = tested on: LXFL 529 NSCLC
[25] = tested on: M14 melanoma
[26] = tested on: M19-MEL melanoma
[27] = tested on: MALME-3M melanoma
[28] = tested on: MOLT-4 leukemia
[29] = tested on: NCI-H226 lung
[30] = tested on: NCI-H23 lung
[31] = tested on: NCI-H460 lung
[32] = tested on: NCI-H522 lung
[33] = tested on: OVCAR-3 ovarian
[34] = tested on: OVCAR-4 ovarian
[35] = tested on: OVCAR-5 ovarian
[36] = tested on: OVCAR-8 ovarian
[37] = tested on: RPMI-8226 leukemia
[38] = tested on: RXF 393 renal
[39] = tested on: SF-268 CNS
[40] = tested on: SF-295 CNS
[41] = tested on: SF-539 CNS
[42] = tested on: SK-MEL-2 melanoma
[43] = tested on: SK-MEL-28 melanoma
[44] = tested on: SK-MEL-5 melanoma
[45] = tested on: SK-OV-3 ovarian
[46] = tested on: SN12C renal
[47] = tested on: SNB-19 CNS
[48] = tested on: SNB-75 CNS
[49] = tested on: SNB-78 CNS
[50] = tested on: SR leukemia
[51] = tested on: SW-620 colon
[52] = tested on: TK-10 renal
[53] = tested on: U251 CNS
[54] = tested on: UACC-257 melanoma
[55] = tested on: UACC-62 melanoma
[56] = tested on: UO-31 renal
[57] = tested on: LOX IMVI melanoma
[58] = tested on: XF 498 CNS
[59] = tested on: BT-549 breast
[60] = tested on: DU-145 prostate
[61] = tested on: HS 578T breast
[62] = tested on: MDA-MB-231 breast
[63] = tested on: PC-3 prostate
[64] = tested on: RXF-631 renal
[65] = tested on: T-47D breast

COC/N=C(/N)NC#N
TGI [1]: > 100 µM
TGI [2]: > 100 µM
TGI [3]: > 100 µM
TGI [4]: > 100 µM
TGI [5]: > 100 µM
TGI [6]: > 100 µM
TGI [7]: 39.2 µM
TGI [8]: > 100 µM
TGI [9]: 37.6 µM
TGI [10]: 91.5 µM
TGI [11]: > 100 µM
TGI [12]: > 100 µM
TGI [13]: > 100 µM
TGI [14]: 31 µM
TGI [15]: > 100 µM
TGI [16]: > 100 µM
TGI [17]: > 100 µM
TGI [18]: > 100 µM
TGI [19]: > 100 µM
TGI [20]: > 100 µM
TGI [21]: > 100 µM
TGI [22]: > 100 µM
TGI [23]: > 100 µM
TGI [24]: > 100 µM
TGI [25]: > 100 µM
TGI [26]: > 100 µM
TGI [27]: > 100 µM
TGI [28]: > 100 µM
TGI [29]: > 100 µM
TGI [30]: > 100 µM
TGI [31]: > 100 µM
TGI [32]: > 100 µM
TGI [33]: > 100 µM
TGI [34]: > 100 µM
TGI [35]: > 100 µM
TGI [36]: > 100 µM
TGI [37]: > 100 µM
TGI [38]: > 100 µM
TGI [39]: > 100 µM
TGI [40]: > 100 µM
TGI [41]: > 100 µM
TGI [42]: > 100 µM
TGI [43]: > 100 µM
TGI [44]: > 100 µM
TGI [45]: > 100 µM
TGI [46]: > 100 µM
TGI [47]: > 100 µM
TGI [48]: > 100000 nM
TGI [49]: > 100 µM
TGI [50]: 53.4 µM
TGI [51]: 33.6 µM
TGI [52]: > 100 µM
TGI [53]: > 100 µM
TGI [54]: > 100 µM
TGI [55]: > 100 µM
TGI [56]: > 100 µM

CC1=NN(C(=O)c2ccc(Cl)cc2)C(=O)/C1=C/c1ccc(Cl)cc1
TGI [1]: > 100 µM
TGI [2]: > 100 µM
TGI [3]: > 100 µM
TGI [4]: > 100 µM
TGI [5]: > 100 µM
TGI [6]: > 100 µM
TGI [7]: > 100 µM
TGI [8]: > 100 µM
TGI [9]: > 100 µM
TGI [11]: > 100 µM
TGI [12]: > 100 µM
TGI [13]: > 100 µM
TGI [15]: > 100 µM
TGI [17]: > 100 µM
TGI [18]: > 100 µM
TGI [19]: > 100 µM
TGI [20]: > 100 µM
TGI [21]: > 100 µM
TGI [22]: > 100 µM
TGI [23]: > 100 µM
TGI [57]: > 100 µM
TGI [24]: > 100 µM
TGI [25]: > 100 µM
TGI [26]: > 100 µM
TGI [27]: > 100 µM
TGI [28]: > 100 µM
TGI [30]: > 100 µM
TGI [31]: > 100 µM
TGI [32]: > 100 µM
TGI [33]: > 100 µM
TGI [34]: > 100 µM
TGI [35]: > 100 µM
TGI [36]: > 100 µM
TGI [37]: > 100 µM
TGI [38]: > 100 µM
TGI [39]: > 100 µM
TGI [40]: > 100 µM
TGI [41]: > 100 µM
TGI [42]: > 100 µM
TGI [43]: > 100 µM
TGI [44]: > 100 µM
TGI [45]: > 100 µM
TGI [46]: > 100 µM
TGI [47]: > 100 µM
TGI [49]: > 100 µM
TGI [51]: > 100 µM
TGI [52]: > 100 µM
TGI [53]: > 100 µM
TGI [54]: > 100 µM
TGI [55]: > 100 µM
TGI [56]: > 100 µM
TGI [58]: > 100 µM

COc1cccc2c1C(=O)c1c(O)c3c(c(O)c1C2=O)C[C@@](O)(C(=O)CO)C[C@@H]3OC1CC(N2CCOCC2C#N)C(O)C(C)O1 (some centres not stated)
GI50 [1]: 0.0534 nM and 0.0331 nM
TGI [1]: 0.00224 µM and 0.00151 µM and 0.00447 µM
TGI [2]: 0.00104 µM and 0.000139 µM
GI50 [4]: 0.078 nM and 0.023 nM
TGI [59]: 0.000234 µM and 0.00023 µM
TGI [60]: 0.02 µM
TGI [11]: 0.00075 µM and 0.000901 µM
TGI [12]: 0.000208 µM and 0.000237 µM
TGI [18]: 0.000614 µM and 0.000566 µM
TGI [61]: 0.0535 nM and 0.221 nM
TGI [22]: 0.00155 µM and 0.000377 µM and 0.00259 µM
GI50 [24]: 0.000245 µM
GI50 [25]: 0.0812 nM
TGI [25]: 0.000108 µM and 0.000527 µM
TGI [62]: 0.000812 µM
TGI [32]: 0.000411 µM and 0.000129 µM
TGI [63]: 0.000124 µM and 0.00112 µM
TGI [38]: 9.82e-05 µM and 5.13e-05 µM
TGI [64]: 0.00227 µM and 0.0215 µM
TGI [41]: 0.0001 µM and 0.000109 µM
TGI [43]: 0.000481 µM and 0.000552 µM
TGI [48]: 0.11 nM and 0.0613 nM
GI50 [50]: 0.0468 nM
TGI [65]: 0.00327 µM and 0.00581 µM
GI50 [52]: 0.000278 µM and 0.000374 µM
TGI [58]: 0.000397 µM and 0.000282 µM

Cc1nc2ccccc2c(=O)n1/N=C(\N=Nc1cccc(Cl)c1)c1ccccc1Cl
TGI [1]: > 100 µM
TGI [3]: > 100 µM
TGI [5]: > 100 µM
TGI [8]: > 100 µM
TGI [10]: > 100 µM
TGI [11]: > 100 µM
TGI [13]: > 100 µM
TGI [14]: > 100 µM
TGI [17]: > 100 µM
TGI [18]: 58.5 µM
TGI [19]: > 100 µM
TGI [21]: 3.73 µM
TGI [23]: > 100 µM
TGI [57]: > 100 µM
TGI [25]: > 100 µM
TGI [26]: > 100 µM
TGI [30]: > 100 µM
TGI [31]: > 100 µM
TGI [32]: > 100 µM
TGI [36]: > 100 µM
TGI [37]: > 100 µM
TGI [38]: 55.2 µM
TGI [40]: 71.5 µM
TGI [41]: 89 µM
TGI [44]: > 100 µM
TGI [45]: 62.8 µM
TGI [46]: > 100 µM
TGI [51]: > 100 µM
TGI [52]: > 100 µM
TGI [53]: > 100 µM
TGI [55]: > 100 µM
TGI [56]: > 100 µM
TGI [58]: 3.91 µM
